Measurements: patent publication US9193733B2, “Piperidinylcyclobutyl substituted pyrrolopyridine and pyrrolopyrimidine derivatives as JAK inhibitors” (Incyte Corporation, priority 2012, dated 2015)

Tests used:
Type in all cases: biochemical
[1] = tested on: human JAK1 (a.a. 837-1142) catalytic domain; experiment: In vitro JAK kinase assay (HTRF, phosphorylation of a biotinylated peptide), JAK1; conditions: ratio of JAK2 IC50 to JAK1 IC50, 1 mM ATP
Method in brief: (§1)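 His-tagged JAK1/JAK2 catalytic domains from baculovirus-infected insect cells phosphorylate 500 nM biotinylated peptide at 1 mM ATP in 50 mM Tris pH 7.8, 100 mM NaCl, 5 mM DTT, 0.01% BSA, 1 h at room temperature. EDTA-stopped; SA-APC/Eu-Py20 HTRF read after 40 min; IC50 determined.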

[2] = target: T1, human JAK1 (a.a. 837-1142) catalytic domain (Homo sapiens, UniProt P23458); experiment: as above; conditions: 1 mM ATP
T1 construct: human JAK1 (a.a. 837-1142) and JAK2 (a.a. 828-1132); His tag (N); made in house; host or cells: insect cells (baculovirus)
Method in brief: as §1

[3] = target: T2, human JAK2 (a.a. 828-1132) catalytic domain (Homo sapiens, UniProt O60674); experiment: In vitro JAK kinase assay (HTRF, phosphorylation of a biotinylated peptide), JAK2; conditions: 1 mM ATP
T2 construct: human JAK1 (a.a. 837-1142) and JAK2 (a.a. 828-1132); His tag (N); made in house; host or cells: insect cells (baculovirus)
Method in brief: as §1

T1 sequence (P23458 849-1154): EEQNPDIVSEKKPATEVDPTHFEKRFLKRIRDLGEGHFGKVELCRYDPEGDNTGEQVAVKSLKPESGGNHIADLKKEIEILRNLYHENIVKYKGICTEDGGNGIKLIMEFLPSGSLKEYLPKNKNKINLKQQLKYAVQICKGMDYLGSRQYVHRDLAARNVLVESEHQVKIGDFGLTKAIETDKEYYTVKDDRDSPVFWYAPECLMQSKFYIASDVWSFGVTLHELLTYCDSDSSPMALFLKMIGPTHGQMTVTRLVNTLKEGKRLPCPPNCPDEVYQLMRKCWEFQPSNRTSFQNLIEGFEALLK
T2 sequence (O60674 828-1132): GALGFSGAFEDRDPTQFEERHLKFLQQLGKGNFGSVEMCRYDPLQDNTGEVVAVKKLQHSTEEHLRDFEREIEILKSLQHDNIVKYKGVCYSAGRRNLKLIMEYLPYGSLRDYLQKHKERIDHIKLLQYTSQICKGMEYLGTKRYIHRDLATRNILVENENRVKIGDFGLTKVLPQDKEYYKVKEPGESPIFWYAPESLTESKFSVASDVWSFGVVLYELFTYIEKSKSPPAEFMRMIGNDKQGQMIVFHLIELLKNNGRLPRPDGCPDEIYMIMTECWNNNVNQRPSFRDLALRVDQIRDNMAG

Compound	JAK2/JAK1 [1]	IC50 [2]	IC50 [3]
CC1(NCc2cc(OC3CCN([C@H]4C[C@](CC#N)(n5cc(-c6ncnc7[nH]ccc67)cn5)C4)CC3)nc(C(F)(F)F)c2)COC1 [Example 9, {trans-3-(4-{[4-{[(3-methyloxetan-3-yl)amino]methyl}-6-(trifluoromethyl)pyridin-2-yl]oxy}piperidin-1-yl)-1-[4-(7H-pyrrolo[2,3-d]pyrimidin-4-yl)-1H-pyrazol-1-yl]cyclobutyl}acetonitrile]	>10	< 20 nM	20 to 150 nM
N#CC[C@]1(n2cc(-c3ncnc4[nH]ccc34)cn2)C[C@H](N2CCC(Oc3cc(CN4CC5(COC5)C4)cc(C(F)(F)F)n3)CC2)C1 [Example 6, {trans-3-(4-{[4-(2-oxa-6-azaspiro[3.3]hept-6-ylmethyl)-6-(trifluoromethyl)pyridin-2-yl]oxy}piperidin-1-yl)-1-[4-(7H-pyrrolo[2,3-d]pyrimidin-4-yl)-1H-pyrazol-1-yl]cyclobutyl}acetonitrile]	>10	< 20 nM	20 to 150 nM
N#CC[C@]1(n2cc(-c3ncnc4[nH]ccc34)cn2)C[C@H](N2CCC(Oc3cc(CN4CC(C#N)C4)cc(C(F)(F)F)n3)CC2)C1 [Example 4, 1-{[2-[(1-{trans-3-(cyanomethyl)-3-[4-(7H-pyrrolo[2,3-d]pyrimidin-4-yl)-1H-pyrazol-1-yl]cyclobutyl}piperidin-4-yl)oxy]-6-(trifluoromethyl)pyridin-4-yl]methyl}azetidine-3-carbonitrile]	>10	< 20 nM	20 to 150 nM
N#CC[C@]1(n2cc(-c3ncnc4[nH]ccc34)cn2)C[C@H](N2CCC(Oc3cc(CCO)cc(C(F)(F)F)n3)CC2)C1 [Example 20, {trans-3-(4-{[4-(2-hydroxyethyl)-6-(trifluoromethyl)pyridin-2-yl]oxy}piperidin-1-yl)-1-[4-(7H-pyrrolo[2,3-d]pyrimidin-4-yl)-1H-pyrazol-1-yl]cyclobutyl}acetonitrile]	>10	< 20 nM	20 to 150 nM
N#CC[C@]1(n2cc(-c3ncnc4[nH]ccc34)cn2)C[C@H](N2CCC(Nc3cc(CN4CC5(COC5)C4)cc(C(F)(F)F)n3)CC2)C1 [Example 46, {trans-3-(4-{[4-(2-oxa-6-azaspiro[3.3]hept-6-ylmethyl)-6-(trifluoromethyl)pyridin-2-yl]amino}piperidin-1-yl)-1-[4-(7H-pyrrolo[2,3-d]pyrimidin-4-yl)-1H-pyrazol-1-yl]cyclobutyl}acetonitrile]	>10	< 20 nM	20 to 150 nM
N#CC[C@]1(n2cc(-c3ncnc4[nH]ccc34)cn2)C[C@H](N2CCC(Nc3cc(CN4CCC(F)(F)C4)cc(C(F)(F)F)n3)CC2)C1 [Example 36, {trans-3-(4-{[4-[(3,3-difluoropyrrolidin-1-yl)methyl]-6-(trifluoromethyl)pyridin-2-yl]amino}piperidin-1-yl)-1-[4-(7H-pyrrolo[2,3-d]pyrimidin-4-yl)-1H-pyrazol-1-yl]cyclobutyl}acetonitrile]	>10	< 20 nM	150 to 500 nM
CN(Cc1cc(NC2CCN([C@H]3C[C@](CC#N)(n4cc(-c5ncnc6[nH]ccc56)cn4)C3)CC2)nc(C(F)(F)F)c1)C1CC1 [Example 37, {trans-3-(4-{[4-{[cyclopropyl(methyl)amino]methyl}-6-(trifluoromethyl)pyridin-2-yl]amino}piperidin-1-yl)-1-[4-(7H-pyrrolo[2,3-d]pyrimidin-4-yl)-1H-pyrazol-1-yl]cyclobutyl}acetonitrile]	>10	< 20 nM	150 to 500 nM
